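1) Cells in 96-well plates. 2) Compound, 48 h, 5 concentrations. 3) Linear interpolation between surrounding doses. 4) Unreached endpoint = highest concentration. GI50: concentration for 50% inhibition of growth.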 Activity calls are given as the source filed them. Rule as the data show it: active = GI50 up to about 1.1 µM and inactive = higher.
How the values were obtained:
Experiment in all cases: DTP human tumour cell line panel, 48 h
A549 = system: A549
EKVX = system: EKVX
HCT-116 = system: HCT-116
HOP-62 = system: HOP-62
HT-29 = system: HT-29
Hs-578T = system: Hs-578T
MDA-MB-435 = system: MDA-MB-435
NCI-H460 = system: NCI-H460
NCI/ADR-RES = system: NCI/ADR-RES
OVCAR-8 = system: OVCAR-8
RXF 393 = system: RXF 393
SF-295 = system: SF-295
SK-OV-3 = system: SK-OV-3
SN12C = system: SN12C
TK-10 = system: TK-10
UO-31 = system: UO-31
CCRF-CEM = system: CCRF-CEM
HCC 2998 = system: HCC 2998
SR = system: SR

| SMILES | GI50 (A549) | GI50 (EKVX) | GI50 (HCT-116) | GI50 (HOP-62) | GI50 (HT-29) | GI50 (Hs-578T) | GI50 (MDA-MB-435) | GI50 (NCI-H460) | GI50 (NCI/ADR-RES) | GI50 (OVCAR-8) | GI50 (RXF 393) | GI50 (SF-295) | GI50 (SK-OV-3) | GI50 (SN12C) | GI50 (TK-10) | GI50 (UO-31) | GI50 (CCRF-CEM) | GI50 (HCC 2998) | GI50 (SR) |
| --- | --- | --- | --- | --- | --- | --- | --- | --- | --- | --- | --- | --- | --- | --- | --- | --- | --- | --- | --- |
| Oc1cc(O)c2c(c1)OC(c1ccc(O)c(O)c1)C(O)C2c1c(O)cc(O)c2c1OC(c1ccc(O)c(O)c1)C(O)C2 (configuration not stated) | > 100 µM (inactive) | > 100 µM (inactive) | > 100 µM (inactive) | > 100 µM (inactive) | > 100 µM (inactive) | > 100 µM (inactive) | > 100 µM (inactive) | 85.1 µM (inactive) | > 100 µM (inactive) | > 100 µM (inactive) | > 100 µM (inactive) | > 100 µM (inactive) | > 100 µM (inactive) | > 100 µM (inactive) | > 100 µM (inactive) | > 100 µM (inactive) |  |  |  |
| CN(C)c1ccc(/C=C(\NC(=O)c2ccccc2)C(=O)Nc2ccccc2C(=O)NCc2ccccc2)cc1 | > 100 µM (inactive) | > 100 µM (inactive) | > 100 µM (inactive) | 31.4 µM (inactive) | > 100 µM (inactive) | > 100 µM (inactive) | > 100 µM (inactive) | > 100 µM (inactive) | 43.1 µM (inactive) | 59.4 µM (inactive) | > 100 µM (inactive) | > 100 µM (inactive) | > 100 µM (inactive) | > 100 µM (inactive) | > 100 µM (inactive) | > 100 µM (inactive) | 62.4 µM (inactive) | > 100 µM (inactive) |  |
| COC(=O)c1ccc(/C=C(\c2ccc([N+](=O)[O-])o2)S(=O)(=O)c2ccc(NC(C)=O)cc2)o1 | 16.7 µM (inactive) | 11.9 µM (inactive) | 2.46 µM (inactive) | 14.4 µM (inactive) | 2.59 µM (inactive) | 2.1 µM (inactive) | 3.82 µM (inactive) | 18.5 µM (inactive) | 14.2 µM (inactive) | 3.42 µM (inactive) | 3.69 µM (inactive) | 17.5 µM (inactive) | 19 µM (inactive) | 0.0579 µM (active) | 4.97 µM (inactive) | 4.49 µM (inactive) |  |  | 1.77 µM (inactive) |
| COc1ccc(N(C(=O)OC(C)(C)C)[C@@H]2C(C)=C[C@H]([S@@+]([O-])c3ccc(C)cc3)[C@@H]3C(=O)N(C)C(=O)[C@@H]32)cc1 | 19.3 µM (inactive) | 2.13 µM (inactive) | 18.6 µM (inactive) | 24.4 µM (inactive) | 21.5 µM (inactive) | 15.5 µM (inactive) | 15 µM (inactive) | 25.2 µM (inactive) | 21.5 µM (inactive) | 20.5 µM (inactive) | 15.3 µM (inactive) | 15.8 µM (inactive) | 13.2 µM (inactive) | 11 µM (inactive) | 17.1 µM (inactive) | 15.1 µM (inactive) | 5.48 µM (inactive) |  |  |
| CC(=O)/N=C1\NC(=O)/C(=C/c2ccc(Cl)cc2Cl)N1C | > 100 µM (inactive) | 1.02 µM (active) | 30.8 µM (inactive) | 41.8 µM (inactive) | 52 µM (inactive) | 23.1 µM (inactive) | 97.5 µM (inactive) | 35.2 µM (inactive) | 21.7 µM (inactive) | 31.6 µM (inactive) | 75 µM (inactive) | 96.2 µM (inactive) | > 100 µM (inactive) |  | > 100 µM (inactive) | > 100 µM (inactive) | 3.44 µM (inactive) | > 100 µM (inactive) |  |
| Oc1c(CN2CCOCC2)ccc2cccnc12 | > 10 µM (inactive) | > 10 µM (inactive) | 6.55 µM (inactive) | > 10 µM (inactive) | > 10 µM (inactive) | > 10 µM (inactive) | > 10 µM (inactive) | 4.63 µM (inactive) | 2.34 µM (inactive) | > 10 µM (inactive) | > 10 µM (inactive) | > 10 µM (inactive) | > 10 µM (inactive) | > 10 µM (inactive) | > 10 µM (inactive) | 8.38 µM (inactive) | 2.54 µM (inactive) | > 10 µM (inactive) |  |
| CCc1nc2cc(F)ccc2[nH]c1=O | > 100 µM (inactive) | 2.34 µM (inactive) | > 100 µM (inactive) | > 100 µM (inactive) | > 100 µM (inactive) | 10.4 µM (inactive) | > 100 µM (inactive) | > 100 µM (inactive) | > 100 µM (inactive) | > 100 µM (inactive) | 27.9 µM (inactive) | > 100 µM (inactive) | > 100 µM (inactive) | > 100 µM (inactive) | > 100 µM (inactive) | > 100 µM (inactive) | > 100 µM (inactive) | > 100 µM (inactive) |  |
| Brc1cccc[n+]1-c1ccc2cc(-[n+]3ccccc3Br)ccc2c1 | 38.9 µM (inactive) | 47.6 µM (inactive) | 39.6 µM (inactive) | 27.6 µM (inactive) | 29.1 µM (inactive) | 56.9 µM (inactive) | 80.9 µM (inactive) | 30.2 µM (inactive) | 53.3 µM (inactive) | 43 µM (inactive) | 32 µM (inactive) | 53.3 µM (inactive) | 3.01 µM (inactive) | 42.4 µM (inactive) | 18.3 µM (inactive) | 18.1 µM (inactive) | 34.1 µM (inactive) | 46.1 µM (inactive) |  |
| COc1ccc(NC(=S)C#N)cc1 | > 100 µM (inactive) |  | > 100 µM (inactive) | > 100 µM (inactive) | > 100 µM (inactive) |  | > 100 µM (inactive) |  | > 100 µM (inactive) | > 100 µM (inactive) | > 100 µM (inactive) | > 100 µM (inactive) | > 100 µM (inactive) | > 100 µM (inactive) | > 100 µM (inactive) |  | 54.1 µM (inactive) | > 100 µM (inactive) | > 100 µM (inactive) |
| O=C1CSCc2sccc21 | > 100 µM (inactive) | > 100 µM (inactive) | > 100 µM (inactive) | > 100 µM (inactive) | > 100 µM (inactive) | > 100 µM (inactive) |  | > 100 µM (inactive) | > 100 µM (inactive) | > 100 µM (inactive) | < 0.01 µM (active) | > 100 µM (inactive) | > 100 µM (inactive) | > 100 µM (inactive) | > 100 µM (inactive) | > 100 µM (inactive) | > 100 µM (inactive) | 15 µM (inactive) | > 100 µM (inactive) |
| COP(=O)(OC)C(Nc1ccc(Cc2ccc(NC(c3ccco3)P(=O)(OC)OC)cc2)cc1)c1ccco1 (configuration not stated) | > 100 µM (inactive) | 20.9 µM (inactive) | 35.9 µM (inactive) | 4.62 µM (inactive) | > 100 µM (inactive) | 11.4 µM (inactive) | > 100 µM (inactive) | > 100 µM (inactive) | > 100 µM (inactive) | 65.5 µM (inactive) | 5.83 µM (inactive) | 11.5 µM (inactive) | 18.8 µM (inactive) | 97.1 µM (inactive) | 8.77 µM (inactive) | 79.1 µM (inactive) | > 100 µM (inactive) |  |  |
| Cc1cc(S(=O)(=O)Nc2nc(N)n[nH]2)c(Cl)cc1Cl | > 10 µM (inactive) | > 10 µM (inactive) | > 10 µM (inactive) | > 10 µM (inactive) | > 10 µM (inactive) | > 10 µM (inactive) | > 10 µM (inactive) | > 10 µM (inactive) | > 10 µM (inactive) | > 10 µM (inactive) | > 10 µM (inactive) | > 10 µM (inactive) | > 10 µM (inactive) | > 10 µM (inactive) | > 10 µM (inactive) |  | > 10 µM (inactive) | > 10 µM (inactive) |  |
| CN(C)C=C1C(=O)c2c(Br)sc(Br)c2C1=O | 36.4 µM (inactive) | 18.9 µM (inactive) | 21.8 µM (inactive) | 27.9 µM (inactive) | 28.8 µM (inactive) | 15.6 µM (inactive) | 14.1 µM (inactive) | 20.6 µM (inactive) | 26.1 µM (inactive) | 22.9 µM (inactive) | 17.5 µM (inactive) | 19.7 µM (inactive) | 22 µM (inactive) | 45.6 µM (inactive) | 28.4 µM (inactive) | 29.6 µM (inactive) | 30.4 µM (inactive) | 13 µM (inactive) |  |
| O=C(CCl)N1CCN(c2ccccc2)CC1 | 22.6 µM (inactive) | 24.5 µM (inactive) | 18.3 µM (inactive) | 19.7 µM (inactive) | 23.6 µM (inactive) | 32.8 µM (inactive) |  | 18.8 µM (inactive) | 44.1 µM (inactive) | 32.1 µM (inactive) | 19.1 µM (inactive) | 19.1 µM (inactive) | 70.1 µM (inactive) |  | 20 µM (inactive) | 17.9 µM (inactive) | 26.7 µM (inactive) | 17.6 µM (inactive) | 26.7 µM (inactive) |
| CC(C)(CN1CCCCC1)C(/C=C/c1ccc(Cl)c(Cl)c1)=N\NC(=O)N/N=C(/C=C/c1ccc(Cl)c(Cl)c1)C(C)(C)CN1CCCCC1 | 1.86 µM (inactive) | 1.64 µM (inactive) | 0.908 µM (active) | 1.87 µM (inactive) | 0.361 µM (active) | 1.81 µM (inactive) | 1.31 µM (inactive) | 1.35 µM (inactive) | 1.73 µM (inactive) | 1.87 µM (inactive) | 0.659 µM (active) | 1.71 µM (inactive) | 1.92 µM (inactive) | 1.77 µM (inactive) | 1.66 µM (inactive) | 4.14 µM (inactive) | 1.76 µM (inactive) | 1.69 µM (inactive) |  |
| COc1ccc(-c2c3c(n(C4OC(COC(C)=O)C(OC(C)=O)C(OC(C)=O)C4OC(C)=O)c(=S)c2C#N)CCCC3)cc1 (configuration not stated) | 64.1 µM (inactive) | 53 µM (inactive) | 79.4 µM (inactive) | 89.3 µM (inactive) | > 100 µM (inactive) |  | > 100 µM (inactive) | 39.8 µM (inactive) | 54.1 µM (inactive) | 69 µM (inactive) | 33.7 µM (inactive) | > 100 µM (inactive) | > 100 µM (inactive) | > 100 µM (inactive) | > 100 µM (inactive) | 64.7 µM (inactive) | 25.5 µM (inactive) | > 100 µM (inactive) | > 100 µM (inactive) |
